Target: Carbonic anhydrase 9 (Homo sapiens, UniProt Q16790)

| Ki [nM] | SMILES |
| --- | --- |
| 23 | COC(=O)[C@H]1O[C@@H](On2cc(CNC(=O)c3ccc(S(N)(=O)=O)cc3)nn2)[C@H](O)[C@@H](O)[C@@H]1O |
| 76 | CC(=O)OC[C@H]1O[C@@H](On2cc(CNC(=O)c3ccc(S(N)(=O)=O)cc3)nn2)[C@H](OC(C)=O)[C@@H](OC(C)=O)[C@@H]1OC(C)=O |

— ChEMBL document CHEMBL1149893, “Recent developments of carbonic anhydrase inhibitors as potential anticancer drugs” (J Med Chem, 2008)
